The target of this experiment is T1, human GPR119 (hGPR119) (Homo sapiens, UniProt Q8TDV5).
T1 construct: expressed in transfected cells
T1 sequence (Q8TDV5 1-335): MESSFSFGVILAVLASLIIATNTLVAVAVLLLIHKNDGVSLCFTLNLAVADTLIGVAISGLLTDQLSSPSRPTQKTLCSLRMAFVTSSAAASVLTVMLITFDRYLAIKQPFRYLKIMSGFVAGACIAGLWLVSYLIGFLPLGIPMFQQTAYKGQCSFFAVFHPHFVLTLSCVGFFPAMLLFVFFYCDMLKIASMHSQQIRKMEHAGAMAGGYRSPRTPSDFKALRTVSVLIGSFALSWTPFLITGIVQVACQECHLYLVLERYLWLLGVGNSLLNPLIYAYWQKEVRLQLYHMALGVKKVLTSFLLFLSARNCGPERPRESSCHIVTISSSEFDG
Description: cAMP accumulation assay (cAMP Gs dynamic HTRF kit). The settings on record: CHO-K1 cells stably expressing hGPR119, 4-parameter fit; for Emax: 1 h, % activity normalized to Max/Min controls; for EC50: cAMP accumulation. The experiment is classed as cell-based. As to the method:
CHO-K1 cells stably expressing human GPR119 (hGPR119) were prepared by transfection of a GPR119-carrying plasmid using Lipofectamine 2000 (following manufacturer instructions). A stable cell line was established using the limiting dilution method with geneticine selection. Assay-ready frozen (ARF) cells were prepared and used throughout the study.
The assay was performed in a 384-well plate format using the cAMP Gs dynamic assay kit from Cisbio. ARF cells expressing hGPR119 were thawed, washed and then resuspended in cAMP stimulation buffer at a cell density of 1.1×10^6 cells/mL. Cells were plated at a density of ˜10,000 cells/well (9 μL/well). Dose response curves for the tested compounds were prepared in a cAMP stimulation buffer, containing 0.1% Tween 80 at 4 fold the final concentration. The compounds were then transferred to the cell plates using BRAVO (3 μL/well) and the plates were incubated for 60 minutes at 37° C./5% CO2. Detection buffer (10 μL, prepared as described in the cAMP Gs dynamic kit) were added to each well, and the plates were incubated at ambient temperature for 1 hr.
RT-FRET was measured using a ClarioSTAR plate reader, calculating the ratio between emissions at 665 nm and 620 nm (HTRF ratio). The HTRF ratio for positive (Max) and negative (Min) controls were used to normalize HTRF data and generate values for % activity. EC50 and Max activity values were determined using a standard 4-parameter fit.
In general terms: Changes in cAMP serve as a functional read-out for many G protein-coupled receptors.

The structures appear in SMILES notation. Where a name gives a salt, the structure may show the parent alone.

As for `COCc1cnc(N2CCC(CCCOc3ccc(CC(=O)N4CC(C(=O)NCCNC(=O)NC(CO)(CO)CO)C4)c(F)c3)CC2)nc1` [Example 27, 1-[2-[2-fluoro-4-[3-[1-[5-(methoxymethyl)pyrimidin-2-yl]-4-piperidyl]propoxy]phenyl]acetyl]-N-[2-[[2-hydroxy-1,1-bis (hydroxymethyl)ethyl]carbamoylamino]ethyl]azetidine-3-carboxamide], the Emax (commonly the maximal effect, on the per cent scale that the assay sets) was 100 to 130% and the EC50 (as a rule, the concentration giving half of the maximal effect) was 100 to 1000 nM.

As to `O=C(NC(CO)CO)C1CN(C(=O)Cc2ccc(OCCCC3CCN(c4ncc(Cl)cn4)CC3)cc2F)C1` [Example 28, 1-[2-[4-[3-[1-(5-chloropyrimidin-2-yl)-4-piperidyl]propoxy]-2-fluoro-phenyl]acetyl]-N-[2-hydroxy-1-(hydroxymethyl)ethyl]azetidine-3-carboxamide], the maximum response (Emax) fell in the range of 100 to 130% and the concentration giving a half-maximal response (EC50) lay within 100 to 1000 nM.

Turning to `O=C(NCC(O)(CO)CO)C1CN(C(=O)Cc2ccc(OCCCC3CCN(c4ncc(Cl)cn4)CC3)cc2F)C1` [Example 30, 1-[2-[4-[3-[1-(5-chloropyrimidin-2-yl)-4-piperidyl]propoxy]-2-fluoro-phenyl]acetyl]-N-[2,3-dihydroxy-2-(hydroxymethyl)propyl]azetidine-3-carboxamide], the Emax fell in the range of 100 to 130% and the 50% effective concentration (EC50) is at most 100 nM.

Compound `O=C(CC1CN(C(=O)Cc2ccc(OCCCC3CCN(c4ncc(Cl)cn4)CC3)cc2F)C1)NC(CO)(CO)CO` [Example 32, 2-[1-[2-[4-[3-[1-(5-chloropyrimidin-2-yl)-4-piperidyl]propoxy]-2-fluoro-phenyl]acetyl]azetidin-3-yl]-N-[2-hydroxy-1,1-bis(hydroxymethyl)ethyl]acetamide] had an Emax of 100 to 130% and an EC50 of 100 to 1000 nM.

Compound `O=C(CC1CN(C(=O)Cc2ccc(OCCCC3CCN(c4ncc(Cl)cn4)CC3)cc2F)C1)NCC(O)(CO)CO` [Example 33, 2-[1-[2-[4-[3-[1-(5-chloropyrimidin-2-yl)-4-piperidyl]propoxy]-2-fluoro-phenyl]acetyl]azetidin-3-yl]-N-[2,3-dihydroxy-2-(hydroxymethyl)propyl]acetamide] displayed an Emax of at least 130% and a concentration for a half-maximal effect (EC50) of 100 to 1000 nM.

Regarding `O=C(CC1CN(C(=O)Cc2c(F)cc(OCCCC3CCN(c4ncc(Cl)cn4)CC3)cc2F)C1)NCC(O)(CO)CO` [Example 34, 2-[1-[2-[4-[3-[1-(5-chloropyrimidin-2-yl)-4-piperidyl]propoxy]-2,6-difluoro-phenyl]acetyl]azetidin-3-yl]-N-[2,3-dihydroxy-2-(hydroxymethyl)propyl]acetamide], the maximal effect (Emax) is at least 130% and the EC50 was at most 100 nM.

Turning to `O=C(CCC1CN(C(=O)Cc2ccc(OCCCC3CCN(c4ncc(Cl)cn4)CC3)cc2F)C1)NCC(O)(CO)CO` [Example 35, 3-[1-[2-[4-[3-[1-(5-chloropyrimidin-2-yl)-4-piperidyl]propoxy]-2-fluoro-phenyl]acetyl]azetidin-3-yl]-N-[2,3-dihydroxy-2-(hydroxymethyl)propyl]propanamide], the maximal effect (Emax) was at least 130% and the 50% effective concentration (EC50) is at most 100 nM.

Consider `O=C(CCC1CN(C(=O)Cc2c(F)cc(OCCCC3CCN(c4ncc(Cl)cn4)CC3)cc2F)C1)NCC(O)(CO)CO` [Example 36, 3-[1-[2-[4-[3-[1-(5-chloropyrimidin-2-yl)-4-piperidyl]propoxy]-2,6-difluoro-phenyl]acetyl]azetidin-3-yl]-N-[2,3-dihydroxy-2-(hydroxymethyl)propyl]propanamide], for which the maximum response (Emax) fell in the range of 100 to 130% and the concentration giving a half-maximal response (EC50) is at most 100 nM.

In the case of `CCCc1cnc(N2CCC(CCCOc3cc(F)c(CC(=O)N4CC(C(=O)NCCC[N+](C)(C)C)C4)c(F)c3)CC2)nc1` [Example 40, 3-[[1-[2-[2,6-difluoro-4-[3-[1-(5-propylpyrimidin-2-yl)-4-piperidyl]propoxy]phenyl]acetyl]azetidine-3-carbonyl]amino]propyl-trimethyl-ammonium formate], the maximal response (Emax) fell in the range of 100 to 130%.

In the case of `O=C(NCC(O)(CO)CO)C1CCN(C(=O)Cc2ccc(OCCCC3CCN(c4ncc(Cl)cn4)CC3)cc2F)CC1` [Example 41, 1-[2-[4-[3-[1-(5-chloropyrimidin-2-yl)-4-piperidyl]propoxy]-2-fluoro-phenyl]acetyl]-N-[2,3-dihydroxy-2-(hydroxymethyl)propyl]piperidine-4-carboxamide], the maximal effect (Emax) was 100 to 130% and the EC50 lay within 100 to 1000 nM.

`O=C(Cc1ccc(OCCCC2CCN(c3ncc(Cl)cn3)CC2)cc1F)N1CC(CNCC(O)(CO)CO)C1` [Example 43, 2-[4-[3-[1-(5-chloropyrimidin-2-yl)-4-piperidyl]propoxy]-2-fluoro-phenyl]-1-[3-[[[2,3-dihydroxy-2-(hydroxymethyl)propyl]amino]methyl]azetidin-1-yl]ethanone] registered an Emax of 100 to 130% and a concentration for a half-maximal effect (EC50) of at most 100 nM.

For the compound `O=C(Cc1ccc(OCCCC2CCN(c3ncc(Cl)cn3)CC2)cc1F)N1CC(CNCC(CO)CO)C1` [Example 45, 2-[4-[3-[1-(5-chloropyrimidin-2-yl)-4-piperidyl]propoxy]-2-fluoro-phenyl]-1-[3-[[[3-hydroxy-2-(hydroxymethyl)propyl]amino]methyl]azetidin-1-yl]ethanone], the Emax was in the range of 100 to 130% and the EC50 was at most 100 nM.

Take `O=C(Cc1ccc(OCCCC2CCN(c3ncc(Cl)cn3)CC2)cc1F)N1CC(CN2C[C@@H](O)[C@@H](O)C2)C1` [Example 48, 2-[4-[3-[1-(5-chloropyrimidin-2-yl)-4-piperidyl]propoxy]-2-fluoro-phenyl]-1-[3-[[rac-(3S,4R)-3,4-dihydroxypyrrolidin-1-yl]methyl]azetidin-1-yl]ethanone]: the maximal effect (Emax) fell in the range of 100 to 130% and the EC50 is at most 100 nM.

`O=C(Cc1ccc(OCCCC2CCN(c3ncc(Cl)cn3)CC2)cc1F)N1CC(CN2C[C@@H](O)[C@@H](O)[C@@H](O)C2)C1` [Example 50, 2-[4-[3-[1-(5-chloropyrimidin-2-yl)-4-piperidyl]propoxy]-2-fluoro-phenyl]-1-[3-[[rac-(3R,5S)-3,4,5-trihydroxy-1-piperidyl]methyl]azetidin-1-yl]ethanone] gave a maximal response (Emax) of 100 to 130% and an EC50 of at most 100 nM.

Consider `O=C(Cc1ccc(OCCCC2CCN(c3ncc(Cl)cn3)CC2)cc1F)N1CC(CNCCOCCOCCO)C1` [Example 51, 2-[4-[3-[1-(5-chloropyrimidin-2-yl)-4-piperidyl]propoxy]-2-fluoro-phenyl]-1-[3-[[2-[2-(2-hydroxyethoxy)ethoxy]ethylamino]methyl]azetidin-1-yl]ethanone], for which the Emax fell in the range of 50 to 100% and the EC50 was at most 100 nM.

The compound `NCCOCCOCCNCC1CN(C(=O)Cc2ccc(OCCCC3CCN(c4ncc(Cl)cn4)CC3)cc2F)C1` [Example 52, 1-[3-[[2-[2-(2-aminoethoxy)ethoxy]ethylamino]methyl]azetidin-1-yl]-2-[4-[3-[1-(5-chloropyrimidin-2-yl)-4-piperidyl]propoxy]-2-fluoro-phenyl]ethanone] gave an Emax of 100 to 130% and an EC50 of 100 to 1000 nM.

Compound `O=C(Cc1c(F)cc(OCCCC2CCN(c3ncc(Cl)cn3)CC2)cc1F)N1CC(CNC[C@H](O)[C@@H](O)[C@H](O)[C@H](O)CO)C1` [Example 53, 2-[4-[3-[1-(5-chloropyrimidin-2-yl)-4-piperidyl]propoxy]-2,6-difluoro-phenyl]-1-[3-[[[(2S,3R,4R,5R)-2,3,4,5,6-pentahydroxyhexyl]amino]methyl]azetidin-1-yl]ethanone] returned a maximal effect (Emax) of at least 130% and a concentration giving a half-maximal response (EC50) of at most 100 nM.

In the case of `O=C(Cc1ccc(OCCCCC2CCN(c3ncc(Cl)cn3)CC2)cc1F)N1CC(CNC[C@H](O)[C@@H](O)[C@H](O)[C@H](O)CO)C1` [Example 54, 2-[4-[4-[1-(5-chloropyrimidin-2-yl)-4-piperidyl]butoxy]-2-fluoro-phenyl]-1-[3-[[[(2S,3R,4R,5R)-2,3,4,5,6-pentahydroxyhexyl]amino]methyl]azetidin-1-yl]ethanone], the maximal response (Emax) was at least 130% and the 50% effective concentration (EC50) lay within 100 to 1000 nM.

Consider `O=C(Cc1c(F)cc(OCCCCC2CCN(c3ncc(Cl)cn3)CC2)cc1F)N1CC(CNC[C@H](O)[C@@H](O)[C@H](O)[C@H](O)CO)C1` [Example 55, 2-(4-(4-(1-(5-chloropyrimidin-2-yl)piperidin-4-yl)butoxy)-2,6-difluorophenyl)-1-(3-((((2S,3R,4R,5R)-2,3,4,5,6-pentahydroxyhexyl)amino)methyl)azetidin-1-yl)ethan-1-one], for which the maximal response (Emax) is at least 130% and the EC50 was in the range of 100 to 1000 nM.

For the origin of these results see patent publication US20230061736A1, “GPR119 AGONISTS” (Kallyope, Inc., priority 2019, published 2023).
